One molecule from patent US20130331378A1, “PYRAZOLOPYRIDINE DERIVATIVE OR PHARMACOLOGICALLY ACCEPTABLE SALT THEREOF” (KISSEI PHARMACEUTICAL CO., LTD., priority 2011, published 2013) can be followed below.

The target in one test is T1, rat EP1 receptor (Rattus norvegicus, UniProt P70597).
T1 construct: expressed in transfected cells
T1 sequence (P70597 1-405): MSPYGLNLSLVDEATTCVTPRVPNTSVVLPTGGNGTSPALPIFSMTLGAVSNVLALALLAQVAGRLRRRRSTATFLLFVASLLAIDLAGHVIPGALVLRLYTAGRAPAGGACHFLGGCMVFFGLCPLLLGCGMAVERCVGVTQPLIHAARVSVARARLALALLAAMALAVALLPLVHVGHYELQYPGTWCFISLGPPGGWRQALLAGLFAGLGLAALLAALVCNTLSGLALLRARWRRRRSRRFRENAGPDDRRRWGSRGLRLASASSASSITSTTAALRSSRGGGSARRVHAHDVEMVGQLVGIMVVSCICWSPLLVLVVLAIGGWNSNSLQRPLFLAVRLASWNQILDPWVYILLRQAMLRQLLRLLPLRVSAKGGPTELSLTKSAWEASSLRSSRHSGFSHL
Description: Test for confirming EP1 receptor antagonistic effect: suppression of prostaglandin E2-induced rise in intracellular calcium concentration. The test is classed as cell-based. Conditions: rat EP1 receptor-expressing COS-1 cells; prostaglandin E2 10 nM; Fluo 4-AM fluorescent signal; test compound 0.1 nM to 10 μM. As to the method:
(1) Preparation of Rat EP1 Expression Vector
The first PCR was performed with Rat Kidney BD Marathon-Ready cDNA (Nippon Becton Dickinson Co., Ltd.) as a template using a forward primer represented by SEQ ID NO: 1 and a reverse primer represented by SEQ ID NO: 2 and using KOD-Plus-Ver 2.0 (Toyobo Co., Ltd.). The second PCR was further performed in a similar manner with this amplification product as a template using a forward primer represented by SEQ ID NO: 3 and a reverse primer represented by SEQ ID NO: 4. The amplification product obtained by the second PCR was incorporated into a vector (pcDNA3.1 D/V5-His-TOPO (registered trademark), Invitrogen Corporation). This vector with the incorporated amplification product was introduced to E. coli (One Shot TOP10 Competent Cell, Invitrogen Corporation) by a conventional method to perform transformation. This transformed E. coli was cultured for 1 day in an LB agar medium. After the culture, colonies were selected and cultured in an LB liquid medium containing 50 μg/mL of ampicillin. After the culture, the vector was purified using QIAprep Spin Miniprep Kit (Qiagen Corporation). The base sequence (SEQ ID NO: 5) of the inserted site in this vector was compared with the base sequence (Ptger1) of rat EP1 registered under Accession No. NM_013100 in a heretofore known database (NCBI) and consequently was completely identical except for 1 base. Moreover, an amino acid sequence translated from this base sequence was completely identical to the amino acid sequence of the rat EP1 receptor registered under Accession No. NP_037232 in NCBI. Thus, it was confirmed that the cloned gene sequence was the base sequence of the rat EP1 receptor and the obtained amino acid sequence was the rat EP1 receptor. The pcDNA3.1 D/V5-His-TOPO (registered trademark) in which the nucleic acid represented by SEQ ID NO: 5 was inserted was used as a rat EP1 expression vector.
(2) Preparation of Rat EP1 Receptor-Expressing Cell
COS-1 cells (Dainippon Sumitomo Pharma Co., Ltd.) were cultured at 37° C. in an incubator under 5% CO2 gas conditions using a D-MEM liquid medium (containing high glucose and L-glutamine, Invitrogen Corporation) supplemented with a penicillin-streptomycin solution (Invitrogen Corporation, final concentration: 100 U/mL as benzylpenicillin; 100 μg/mL as streptomycin) as antibiotics, MEM non-essential amino acids (Invitrogen Corporation, final concentration: 0.1 mM), and fetal bovine serum (Moregate Biotech, final concentration: 10%), until reaching confluence.
The cells that reached confluence were dissociated with 0.05% trypsin/0.53 mM EDTA.4Na (Invitrogen Corporation) and resuspended in the liquid medium. The resuspended cells were diluted with the liquid medium so that the spread ratio became 1:4 to 1:8, and were cultured.
The cells that reached confluence were dissociated with 0.05% trypsin/0.53 mM EDTA.4Na and resuspended in a D-MEM liquid medium (containing high glucose and L-glutamine, Invitrogen Corporation) supplemented with MEM non-essential amino acids (final concentration: 0.1 mM) and fetal bovine serum (final concentration: 10%). This resuspended cell suspension was prepared with a liquid medium so as to become the number of cells 5×10^4 cells/100 μL of the liquid medium/well in each well of a poly-D-lysine-coated 96-well microplate (BD BioCoat (registered trademark), Nippon Becton Dickinson Co., Ltd.), and this cell preparation was dispensed at 100 μL to each well and seeded. After the seeding, the cells were cultured at 37° C. in an incubator under 5% CO2 gas conditions. The introduction of the rat EP1 expression vector was performed by procedures shown below at the point in time when the cells for introduction of this rat EP1 expression vector adhered (approximately 2 hours after the seeding).
Lipofectamine 2000 (Invitrogen Corporation) was used for the introduction of the rat EP1 expression vector. […]

Test [1] has as its system 17-PTP-induced bladder contraction. The test is described as follows: Suppressing effect on 17-phenyl trinor prostaglandin E2 (17-PTP)-induced bladder contraction. The test is classed as in vivo, Wistar-type male rat. Conditions: urethane-anesthetized spinal cord-cut rat; test compound 1 mg/kg i.v. 5 minutes before 17-PTP i.a.; most decreased value until 95 minutes, relative to average before test compound administration. As to the method: (1) Preparation of Experimental Animal
A 10 w/v % urethane solution was subcutaneously administered (s. c.) at a dose of 1.5 g/kg to a Wistar-type male rat to thereby induce anesthesia. Approximately 40 minutes after the urethane administration, the rat was confirmed to be fully anesthetized, hair in the back, the thighs on both sides, the abdomen, and the neck was shaved, and fixation in a face-down position was performed. After midline incision of the dorsal skin, thoracodorsal muscles on both sides were incised along the spine, and the muscular layer was opened with a retractor to expose the thoracic spine. While the ninth thoracic vertebra was pulled cranially, a small hole was made with bone forceps, and from it, the spinal cord was cut using a soldering iron. At this time, in the case where bleeding was heavy, a gelatin sponge for hemostasis was put into the cut portion. The thoracodorsal incision layer was closed using a surgical adhesive, and then, the rat was fixed in a face-up position. […]
The rat was placed in a face-up position on a heating pad for small animals, and a rectal temperature probe was inserted from the anus to keep the body temperature at 37.5° C. The body temperature was confirmed to become 37.5° C., then 0.1 mL of a physiological saline solution was injected into the bladder, and intravesical pressure was measured. […]

In general, IC50 refers to the point on the concentration scale where inhibition reaches its midpoint. Turning to `O=C(O)c1cccc(Cc2c(-c3ccccc3)nn3cc(Cl)ccc23)n1` [Example 3-3, 6-[(6-Chloro-2-phenylpyrazolo[1,5-a]pyridin-3-yl)methyl]pyridine-2-carboxylic acid], the IC50 on rat EP1 receptor was determined as 8 nM. Moreover, in test [1], the “Amount of change in intravesical pressure” value was found to be 53%.
